Source: US9619875B2, “Contrast reagent leakage correction in dynamic susceptibility contrast magnetic resonance imaging” (OREGON HEALTH & SCIENCE UNIVERSITY, priority 2014, dated 2017)

Test: DSC MRI with gadoteridol (day 1) and ferumoxytol (day 2) in subjects with Glioblastoma multiforme
Type: in vivo
Source text: In this example, 17 subjects with Glioblastoma multiforme (GBM) were prospectively studied on institutional review board approved protocols. Informed written consent was obtained from each subject. Subjects underwent MRI sessions consisting of two consecutive days of MRI scans. On the first day, pre- and post-contrast T1-weighted images and DSC-MRI were acquired using gadoteridol gadolinium (III) chelate (ProHance, Bracco Diagnostic Inc., Princeton, N.J.). On the following day, the same MRI sequences were acquired using ferumoxytol (provided by AMAG Pharmaceuticals, Inc., Cambridge, Mass.). […]
All Gd and Fe DSC data were first motion corrected within each dynamic series and then between the series using FMRIB's Linear Image Registration Tool (FLIRT) within FM RIB Software Library (FSL). […] The Gd CR extravasating rate constant was calculated either with the Equation 1 fitting approach to obtain K2, or the KL constant defined as the slope of the linear portion of the graphed points using Equation 2. In this example, linear regression was performed starting at 40 seconds post CR injection to ensure minimal influence of CR transient period (period (i) shown in FIGS. 2E and 2F described below) on KL quantification. […]

## CC(O)CN1CCN(CC(=O)[O-])CCN(CC(=O)[O-])CCN(CC(=O)[O-])CC1.[Gd+3] (centres unmarked) [gadoteridol, gadoteridol gadolinium (III) chelate]
17 GBM subjects, gadoteridol 0.1 mmol/kg i.v., ferumoxytol 1 mg/kg, 2 mg/kg or 75 mg i.v.
  complications during the MR examinations: No subject had any complications
Equation 2 linearization, data up to 70 s post CR injection
  pixels with appreciable linearity departure (period iii, intravasation): < 0.1%
